# Laboratory results as given in patent US20220387358A1, “CERAMIDE ANALOG SACLAC MODULATES SPHINGOLIPID LEVELS AND MCL-1 SPLICING TO INDUCE APOPTOSIS IN ACUTE MYELOID LEUKEMIA” (University of Virginia Patent Foundation, priority 2019, published 2022).
# Values joined by “and” are separate entries in the source; they are usually repeats but may differ in a detail not shown here. Equal values may be shown once. Read-outs that look alike come from different tables or passages of the source.
# Legend:
# normal CD34+ cells = test: Cell viability of normal samples ([…]-GLO); type: cell-based; conditions: Homo sapiens; CD34+ (n=4); 24 hours
# Description: (§1) Healthy donor samples: PBMCs from healthy donors were enriched using the Ficoll-Paque gradient separation method. CD34+PBMCs mobilized with G-CSF were obtained from the University of Virginia Health System Blood Bank (Charlottesville, Va., United States of America). CD34+ cells were isolated from PBMCs with a Human CD34 MicroBead Kit (#130-046, Miltenyi Biotec, Bergisch Gladbach, Germany) using the autoMACS Pro Separator (#130-092-545, Miltenyi Biotec, Bergisch Gladbach, Germany). For cell viability, cell lines were plated at 2.5×10^4 cells per well in a 96-well plate and treated with […] or DMSO vehicle (0.4% of total volume) for the indicated time points and doses. […] Conversion of MTS to formazan product was measured by absorbance at 490 nm using a BioTek Cytation 3 plate reader (BioTeck, Winooski, Vt., United States of America). Absorbance was normalized to DMSO control, which was defined as 100% viability. […] After 15 minutes, luminescence was read on a BioTek Cytation 3 plate reader (BioTek, Winooski, Vt., United States of America). Absorbance was normalized to DMSO control, which was defined as 100% viability.
# [1] = system: PBMCs from healthy donors; test: Cell viability of normal samples ([…]-GLO); type: cell-based; conditions: Homo sapiens, PBMC; PBMCs (n=6); 24 hours
# Description: as §1
# [2] = Solubility in vehicles for i.v. drug delivery; type: physicochemical
# human AML cell lines = test: Sphingolipid analysis by LC-ESI-MS/MS (S1P, total ceramide); type: cell-based; conditions: 2.5 μM, 24 hours
# Description: Lipid extraction and analysis was done using liquid chromatography-electrospray ionization-tandem mass spectrometry (LC-ESI-MS/MS) as previously described (22). Cells were plated at 5 million cells per 6 ml and treated with SACLAC or DMSO for 24 hours. Lipids were extracted from cell pellets using an azeotrophic mix of isopropanol: water: ethyl acetate (3:1:6; v:v:v). Internal standards (50 pmol of d17 long-chain bases and C12 acylated sphingolipids) were added to samples at the onset of the extraction procedure. Extracts were separated on a Waters I-class Acquity UPLC chromatography system (Waters Corporation, Milford, Mass., United States of America). Mobile phases were (A) 60:40 water: acetonitrile and (B) 90:10 isopropanol:methanol with both mobile phases containing 5 mM ammonium formate and 0.1% formic acid. A Waters C18 CSH 2.1 mm ID×10 cm column maintained at 65° C. was used for the separation of the sphingoid bases, 1-phosphates, and acylated sphingolipids. The eluate was analyzed with an inline Waters TQ-S mass spectrometer (Waters Corporation, Milford, Mass., United States of America) using multiple reaction monitoring. All data reported are based on monoisotopic mass and are represented as pmol/mg protein.
# [3] = system: MCL-1S transcript in OCI-AML2 cells; test: RT-qPCR of MCL-1S transcript; type: cell-based, human; conditions: 5 μM SACLAC; 6 hours
# Description: Cells were seeded at 2.5×10^5 cells per ml in 6-well plates and treated with DMSO or SACLAC for six hours. Cells were harvested and resuspended in TRIzol reagent (#15596026, Invitrogen, Carlsbad, Calif., United States of America). RNA was isolated using Direct-zol RNA Miniprep Plus (#R2072, Zymo Research, Irvine, Calif., United States of America) according to the manufacturer's protocol. RNA was quantified using the Take3 microplate and the pre-programmed RNA quantification protocol on the Gen5 software for the Cytation 3 plate reader (BioTek, Winooski, Vt., United States of America). DNase treatment and reverse transcription were done using the iScript gDNA Clear cDNA Synthesis Kit (#1725035, Bio-Rad Laboratories, Hercules, Calif., United States of America) in accordance with the manufacturer's protocol. The qPCR reaction contained iTaq Universal SYBR Green (#1725122, Bio-Rad Laboratories, Hercules, Calif., United States of America), 140 ng cDNA and primers specific for HPRT (#100-25636, Bio-Rad Laboratories, Hercules, Calif., United States of America), B2M (#100-25636, Bio-Rad Laboratories, Hercules, Calif., United States of America) and MCL-1S (Eurofins (Luxembourg); forward, 5′-[…]-3′ (SEQ ID NO: 1) and reverse, 5′-[…]-3′ (SEQ ID NO: 2)) (38). This primer pair specifically amplifies Mcl-1 transcript variant 2 (MCL-1S) according to BLAST analysis. […]
# 30 human AML cell lines = test: Cell viability MTS assay, panel of cell lines; type: cell-based; conditions: 24 and 48-hour time points
# Description: For cell viability, cell lines were plated at 2.5×10^4 cells per well in a 96-well plate and treated with […] or DMSO vehicle (0.4% of total volume) for the indicated time points and doses. At the experiment end point, 3-(4,5-Dimethylthiazol-2-yl)-5-(3-carboxymethoxyphenyl)-2-(4-sulfophenyl)-2H-tetrazolium (MTS) Cell Proliferation Colorimetric Assay Kit (# K300-5000, BioVision, Inc., Milpitas, Calif., United States of America) reagent was added and incubated for 2 hours. Conversion of MTS to formazan product was measured by absorbance at 490 nm using a BioTek Cytation 3 plate reader (BioTeck, Winooski, Vt., United States of America). Absorbance was normalized to DMSO control, which was defined as 100% viability. Due to limited cell numbers, patient samples and normal samples were plated at 5×10^3 cells per well in a 384-well plate with […] or DMSO control for the indicated time points and doses. At the experiment end point, a luminescent reagent sold under the tradename [sequence]-GLOTM (#G7572, Promega Corporation, Madison, Wis., United States of America) was added. After 15 minutes, luminescence was read on a BioTek Cytation 3 plate reader (BioTek, Winooski, Vt., United States of America). Absorbance was normalized to DMSO control, which was defined as 100% viability.
smiles,measurement,setting,value
"CCCCCCCCCCCCCCC[C@@H](O)[C@H](CO)NC(=O)CCl [SACLAC, N-[(2S,3R)-1,3-dihydroxyoctadecan-2-yl]2-chloroacetamide]",EC50,normal CD34+ cells,4 µM
same,EC50,[1],7.4 µM
same,solubility in vehicles for i.v. drug delivery,[2],low solubility
same,increase in total ceramide,"human AML cell lines; HL-60/VCR, THP-1, OCI-AML2",2.5 fold and 2- to 3 fold
same,S1P content reduced by,human AML cell lines; HL-60/VCR,87%
same,S1P levels,human AML cell lines; OCI-AML2,below the limit of detection
same,S1P levels,human AML cell lines; THP-1,below the limit of detection
same,MCL-1S transcript level,[3],Increased
same,EC50,30 human AML cell lines; read-out: average EC50 across 30 human AML cell lines,3.2 µM
same,EC50,"30 human AML cell lines; Homo sapiens, 48 h, read-out: average EC50 across 30 human AML cell lines",~3 µM
same,EC50,"30 human AML cell lines; Homo sapiens, 48 h, read-out: EC50 of 25 of 30 cell lines, 25 of 30 cell lines",< 5 µM
